In patent publication US9023789B2, “Amylin analogs and pharmaceutical compositions thereof” (Novo Nordisk A/S, priority 2012, dated 2015):
Numbered stars: 1 amine (or outer) side, 2 acyl side, 3 side chain; on linkers, the order of the positions; unused ones are H or OH. Bridge positions count the residues as written; N and C are the ends. Side chains are listed from the residue outwards. Peptide text beside a SMILES is read from it. * marks the point of attachment. C20 diacid = O=C(O)CCCCCCCCCCCCCCCCCCC(=O)*; γGlu = O=C(O)[C@H](CCC(=O)[*:2])N[*:1]; AEEA = NCCOCCOCC(=O)O

Assays:
[1] = ASSAY (III) ThT fibrillation assay for physical stability; type: physicochemical
Method in brief: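 Formulations with 1 μM ThT, pH adjusted as required, incubated at 37 °C with 960 rpm orbital shaking; fluorescence (ex 444/em 485 nm) read every 20 min. Fibrillation reported as mean ThT fluorescence ± SD of 4–8 replicates at time points; polypeptide concentration measured by reverse-phase HPLC before and after, post-centrifugation.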

[2] = biological target: T1, rat amylin receptor (rat calcitonin receptor + rat RAMP 3) (Rattus norvegicus, UniProt P32214+Q9JJ73); experiment: ASSAY (VI) binding to the rat amylin receptor; conditions: for IC50: binding to rat amylin receptor, read-out: rAmylin-R bind IC50
T1 construct: expressed in transfected cells; host or cells: BHK tk'ts 13 (transient, FuGENE 6), membranes
T1 sequence (P32214 25-479 isoform P32214-2 limits assumed): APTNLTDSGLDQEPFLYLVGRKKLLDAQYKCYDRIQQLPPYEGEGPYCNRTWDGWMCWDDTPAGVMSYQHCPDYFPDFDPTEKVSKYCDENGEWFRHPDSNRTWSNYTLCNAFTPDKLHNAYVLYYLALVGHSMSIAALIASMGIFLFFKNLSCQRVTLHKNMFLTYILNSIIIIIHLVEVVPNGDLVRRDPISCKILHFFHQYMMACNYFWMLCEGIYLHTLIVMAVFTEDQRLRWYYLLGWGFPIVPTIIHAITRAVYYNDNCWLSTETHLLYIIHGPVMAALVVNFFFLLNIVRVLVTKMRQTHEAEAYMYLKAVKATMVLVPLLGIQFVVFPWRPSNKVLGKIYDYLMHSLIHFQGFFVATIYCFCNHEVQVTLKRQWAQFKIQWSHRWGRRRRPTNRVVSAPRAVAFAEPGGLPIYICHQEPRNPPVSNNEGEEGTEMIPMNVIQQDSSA
T1 sequence (Q9JJ73 23-147 partner): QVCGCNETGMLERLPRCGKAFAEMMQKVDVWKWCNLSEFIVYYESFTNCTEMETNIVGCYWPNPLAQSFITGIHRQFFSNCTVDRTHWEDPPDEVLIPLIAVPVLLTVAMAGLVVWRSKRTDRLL
Method in brief: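 Binding to the rat amylin receptor was determined with membrane preparations. The receptor was expressed by transiently transfecting BHK tk′ts 13 cells with rat calcitonin receptor, using FuGENE® 6 (Roche) according to the manufacturer's recommendations. Roughly 48 hours later the cells were harvested and their membranes isolated.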

[3] = Table 7, rat binding selectivity, rCTR IC50 / rAmylin-R IC50
[4] = Table 7a (preferred compounds), rat binding selectivity, rCTR IC50 / rAmylin-R IC50
[5] = ratio of rCTR bind IC50 to rAmylin-R bind IC50

SMILES | ThT pH 4.0 lag time (h) [1] [h] | IC50 ([2]; Table 7) [pM] | Ratio rCT/rAmylin binding [2, 3] | Ratio rCT/rAmylin binding [2, 4] | Ratio rCT/rAmylin binding [2, 5]
CC[C@H](C)[C@H](NC(=O)[C@H](C)NC(=O)CNC(=O)[C@H](Cc1ccccc1)NC(=O)[C@H](CC(N)=O)NC(=O)[C@@H]1CCCN1C(=O)[C@H](CO)NC(=O)[C@H](CO)NC(=O)[C@H](Cc1c[nH]cn1)NC(=O)[C@H](CCCNC(=N)N)NC(=O)[C@H](CC(C)C)NC(=O)[C@H](Cc1ccccc1)NC(=O)[C@H](Cc1c[nH]cn1)NC(=O)[C@H](C)NC(=O)[C@H](CC(C)C)NC(=O)[C@H](CCCNC(=N)N)NC(=O)[C@H](CCC(N)=O)NC(=O)[C@@H](NC(=O)[C@H](C)NC(=O)[C@@H]1CSSC[C@H](NC(=O)[C@@H](N)CCCCNC(=O)CC[C@H](NC(=O)CCCCCCCCCCCCCCCCCCC(=O)O)C(=O)O)C(=O)N[C@@H](CC(N)=O)C(=O)N[C@@H]([C@@H](C)O)C(=O)N[C@@H](C)C(=O)N[C@@H]([C@@H](C)O)C(=O)N1)[C@@H](C)O)C(=O)N1CCC[C@H]1C(=O)N[C@@H](CO)C(=O)N[C@@H](CO)C(=O)N[C@H](C(=O)N[C@@H](CC(N)=O)C(=O)N[C@H](C(=O)NCC(=O)N1CCC[C@H]1C(=O)N[C@@H](CC(N)=O)C(=O)N[C@H](C(=O)N1CCC[C@H]1C(N)=O)[C@@H](C)O)C(C)C)[C@@H](C)O [Example 115] (H-K([γGlu-C20 diacid])CNTATCATQRLAHFLRHSSPNFGAIPSSTNVGPNTP-NH2; disulfide 2-7 (inferred); N-terminus assumed) | 45 | 125 | 3.0 | – | –
CC[C@H](C)[C@H](NC(=O)[C@H](C)NC(=O)CNC(=O)[C@H](Cc1ccccc1)NC(=O)[C@H](CC(N)=O)NC(=O)[C@@H]1CCCN1C(=O)[C@H](CO)NC(=O)[C@H](CO)NC(=O)[C@H](Cc1c[nH]cn1)NC(=O)[C@H](CCCNC(=N)N)NC(=O)[C@H](CC(C)C)NC(=O)[C@H](Cc1ccccc1)NC(=O)[C@H](CC(N)=O)NC(=O)[C@H](C)NC(=O)[C@H](CC(C)C)NC(=O)[C@H](CCCNC(=N)N)NC(=O)[C@H](CCC(N)=O)NC(=O)[C@@H](NC(=O)[C@H](C)NC(=O)[C@@H]1CSSC[C@H](NC(=O)[C@@H](N)CCCCNC(=O)CC[C@H](NC(=O)CCCCCCCCCCCCCCCCCCC(=O)O)C(=O)O)C(=O)N[C@@H](CC(N)=O)C(=O)N[C@@H]([C@@H](C)O)C(=O)N[C@@H](C)C(=O)N[C@@H]([C@@H](C)O)C(=O)N1)[C@@H](C)O)C(=O)N1CCC[C@H]1C(=O)N[C@@H](CO)C(=O)N[C@@H](CO)C(=O)N[C@H](C(=O)N[C@@H](CC(N)=O)C(=O)N[C@H](C(=O)NCC(=O)N[C@@H](CO)C(=O)N[C@@H](CCC(=O)O)C(=O)N[C@H](C(=O)N[C@@H](Cc1ccc(O)cc1)C(N)=O)[C@@H](C)O)C(C)C)[C@@H](C)O [Example 27] | 28 | 614 | 146.8 | 146.8 | 146.8
CC[C@H](C)[C@H](NC(=O)[C@H](C)NC(=O)CNC(=O)[C@H](Cc1ccccc1)NC(=O)[C@H](CC(N)=O)NC(=O)[C@@H]1CCCN1C(=O)[C@H](CO)NC(=O)[C@H](CO)NC(=O)[C@H](Cc1c[nH]cn1)NC(=O)[C@H](CCCNC(=N)N)NC(=O)[C@H](CC(C)C)NC(=O)[C@H](Cc1ccccc1)NC(=O)[C@H](CC(N)=O)NC(=O)[C@H](C)NC(=O)[C@H](CC(C)C)NC(=O)[C@H](CCCNC(=N)N)NC(=O)[C@H](CCC(N)=O)NC(=O)[C@@H](NC(=O)[C@H](C)NC(=O)[C@@H]1CSSC[C@H](NC(=O)[C@@H](N)CCCCNC(=O)CC[C@H](NC(=O)CC[C@H](NC(=O)CCCCCCCCCCCCCCCCCCC(=O)O)C(=O)O)C(=O)O)C(=O)N[C@@H](CC(N)=O)C(=O)N[C@@H]([C@@H](C)O)C(=O)N[C@@H](C)C(=O)N[C@@H]([C@@H](C)O)C(=O)N1)[C@@H](C)O)C(=O)N1CCC[C@H]1C(=O)N[C@@H](CO)C(=O)N[C@@H](CO)C(=O)N[C@H](C(=O)N1CCC[C@H]1C(=O)N[C@H](C(=O)NCC(=O)N1CCC[C@H]1C(=O)N[C@@H](CCCNC(=N)N)C(=O)N[C@H](C(=O)N[C@@H](Cc1ccc(O)cc1)C(N)=O)[C@@H](C)O)C(C)C)[C@@H](C)O [Example 119] (H-K([γGlu-γGlu-C20 diacid])CNTATCATQRLANFLRHSSPNFGAIPSSTPVGPRTY-NH2; disulfide 2-7) | 10 | 381 | 137.4 | 137.4 | 137.4
CC[C@H](C)[C@H](NC(=O)[C@H](C)NC(=O)CNC(=O)[C@H](Cc1ccccc1)NC(=O)[C@H](CC(N)=O)NC(=O)[C@@H]1CCCN1C(=O)[C@H](CO)NC(=O)[C@H](CO)NC(=O)[C@H](Cc1c[nH]cn1)NC(=O)[C@H](CCCNC(=N)N)NC(=O)[C@H](CC(C)C)NC(=O)[C@H](Cc1ccccc1)NC(=O)[C@H](CC(=O)O)NC(=O)[C@H](C)NC(=O)[C@H](CC(C)C)NC(=O)[C@H](CCCNC(=N)N)NC(=O)[C@H](CCC(N)=O)NC(=O)[C@@H](NC(=O)[C@H](C)NC(=O)[C@@H]1CSSC[C@H](NC(=O)[C@@H](N)CCCCNC(=O)CC[C@H](NC(=O)CC[C@H](NC(=O)CCCCCCCCCCCCCCCCCCC(=O)O)C(=O)O)C(=O)O)C(=O)N[C@@H](CC(N)=O)C(=O)N[C@@H]([C@@H](C)O)C(=O)N[C@@H](C)C(=O)N[C@@H]([C@@H](C)O)C(=O)N1)[C@@H](C)O)C(=O)N1CCC[C@H]1C(=O)N[C@@H](CO)C(=O)N[C@@H](CO)C(=O)N[C@H](C(=O)N[C@@H](CC(N)=O)C(=O)N[C@H](C(=O)NCC(=O)N[C@@H](CO)C(=O)N[C@@H](CC(=O)O)C(=O)N[C@H](C(=O)N[C@@H](Cc1ccc(O)cc1)C(N)=O)[C@@H](C)O)C(C)C)[C@@H](C)O [Example 2] (H-K([γGlu-γGlu-C20 diacid])CNTATCATQRLADFLRHSSPNFGAIPSSTNVGSDTY-NH2; disulfide 2-7; N-terminus assumed) | 10 | 295 | 365.7 | 365.7 | 365.7
CC[C@H](C)[C@H](NC(=O)[C@H](C)NC(=O)CNC(=O)[C@H](Cc1ccccc1)NC(=O)[C@H](CC(N)=O)NC(=O)[C@@H]1CCCN1C(=O)[C@H](CO)NC(=O)[C@H](CO)NC(=O)[C@H](Cc1c[nH]cn1)NC(=O)[C@H](CCCNC(=N)N)NC(=O)[C@H](CC(C)C)NC(=O)[C@H](Cc1ccccc1)NC(=O)[C@H](Cc1c[nH]cn1)NC(=O)[C@H](C)NC(=O)[C@H](CC(C)C)NC(=O)[C@H](CCCNC(=N)N)NC(=O)[C@H](CCC(N)=O)NC(=O)[C@@H](NC(=O)[C@H](C)NC(=O)[C@@H]1CSSC[C@H](NC(=O)[C@@H](N)CCCCNC(=O)COCCOCCNC(=O)CC[C@H](NC(=O)CCCCCCCCCCCCCCCCCCC(=O)O)C(=O)O)C(=O)N[C@@H](CC(N)=O)C(=O)N[C@@H]([C@@H](C)O)C(=O)N[C@@H](C)C(=O)N[C@@H]([C@@H](C)O)C(=O)N1)[C@@H](C)O)C(=O)N1CCC[C@H]1C(=O)N[C@@H](CO)C(=O)N[C@@H](CO)C(=O)N[C@H](C(=O)N1CCC[C@H]1C(=O)N[C@H](C(=O)NCC(=O)N[C@@H](CO)C(=O)N[C@@H](CC(N)=O)C(=O)N[C@H](C(=O)N[C@@H](Cc1ccc(O)cc1)C(N)=O)[C@@H](C)O)C(C)C)[C@@H](C)O [Example 61] (H-K([AEEA-γGlu-C20 diacid])CNTATCATQRLAHFLRHSSPNFGAIPSSTPVGSNTY-NH2; disulfide 2-7 (inferred)) | 45 | 842 | 39.7 | 39.7 | 39.7
